Holding throughout (conditions): human
The subject of data set [1] is Hepatotoxicity. As to the kind of experiment: FDA HLAED, liver enzyme composite activity.
Data set [2] concerns Hepatotoxicity. Briefly: FDA HLAED, gamma-glutamyl transferase (GGT) increase.
Data set [3] deals with Hepatotoxicity. Briefly: FDA HLAED, alkaline phosphatase increase.
Data set [4] deals with Hepatotoxicity. Briefly: FDA HLAED, lactate dehydrogenase (LDH) increase.
In data set [5] the test system is Hepatotoxicity. As to the kind of experiment: FDA HLAED, serum glutamic pyruvic transaminase (SGPT) increase.
For data set [6], the system named is Hepatotoxicity. Briefly: FDA HLAED, serum glutamic oxaloacetic transaminase (SGOT) increase.

Structures are written as SMILES.
Wherever GGT Increase - Index Value is given: reference of the scale not given here.
Wherever LDH Increase - Index Value is given: reference of the scale not given here.

In the case of `O=C(O)CCc1nc(-c2ccccc2)c(-c2ccccc2)o1` [OXAPROZIN], in the data set with Hepatotoxicity [1], the “Composite Activity - Active” value is 0, the “Composite Activity - Marginal” value amounted to 0 and the “Composite Activity - Score” value is reported as “Inactive”. In the data set on Hepatotoxicity [2], the “GGT Increase - Activity Score” value is reported as “Inactive”, the “GGT Increase - Index Value” is 0.4 and the “GGT Increase - Number of Reports” value was less than 4. For the same molecule, in the data set with Hepatotoxicity [3], the “Alkaline Phosphatase Increase - Activity Score” value is “Inactive”, the “Alkaline Phosphatase Increase - Index Value” is 0.2 and the “Alkaline Phosphatase Increase - Number of Reports” value was less than 4. Besides, in the data set on Hepatotoxicity [4], the “LDH Increase - Activity Score” value is “Inactive”, the “LDH Increase - Index Value” stood at 0.4 and the “LDH Increase - Number of Reports” value is “>= 4”. Also, in the data set with Hepatotoxicity [5], the “SGPT Increase - Activity Score” value is “Inactive”, the “SGPT Increase - Index Value” came out at 0.8 and the “SGPT Increase - Number of Reports” value was “>= 4”. Further, in the data set with Hepatotoxicity [6], the “SGOT Increase - Activity Score” value is on record as “Inactive”, the “SGOT Increase - Index Value” is listed as 0.9 and the “SGOT Increase - Number of Reports” value was “>= 4”.

On to `COCC1=C(C(=O)O)N2C(=O)[C@@H](NC(=O)/C(=N\OC)c3csc(N)n3)[C@H]2SC1` [CEFPODOXIME], for which, in the data set on Hepatotoxicity [1], the “Composite Activity - Active” value was found to be 0, the “Composite Activity - Marginal” value was 0 and the “Composite Activity - Score” value is “Inactive”. Besides, in the data set on Hepatotoxicity [2], the “GGT Increase - Activity Score” value was “Inactive”, the “GGT Increase - Index Value” is reported as 0.5 and the “GGT Increase - Number of Reports” value is recorded as less than 4. For the same molecule, in the data set on Hepatotoxicity [3], the “Alkaline Phosphatase Increase - Activity Score” value is listed as “Inactive”, the “Alkaline Phosphatase Increase - Index Value” turned out to be 1 and the “Alkaline Phosphatase Increase - Number of Reports” value was “>= 4”. For the same molecule, in the data set on Hepatotoxicity [4], the “LDH Increase - Activity Score” value is listed as “Inactive”, the “LDH Increase - Index Value” was found to be 0.2 and the “LDH Increase - Number of Reports” value was less than 4. Besides, in the data set on Hepatotoxicity [5], the “SGPT Increase - Activity Score” value was “Inactive”, the “SGPT Increase - Index Value” turned out to be 0.8 and the “SGPT Increase - Number of Reports” value is reported as “>= 4”. In the data set with Hepatotoxicity [6], the “SGOT Increase - Activity Score” value is “Inactive”, the “SGOT Increase - Index Value” came out at 1 and the “SGOT Increase - Number of Reports” value is “>= 4”.

On to `CN1C(C(=O)Nc2ccccn2)=C(O)c2ccccc2S1(=O)=O` [PIROXICAM], for which, in the data set on Hepatotoxicity [1], the “Composite Activity - Active” value amounted to 0, the “Composite Activity - Marginal” value was found to be 0 and the “Composite Activity - Score” value was “Inactive”. Also, in the data set with Hepatotoxicity [2], the “GGT Increase - Activity Score” value is recorded as “Inactive”, the “GGT Increase - Index Value” came out at 0 and the “GGT Increase - Number of Reports” value is recorded as less than 4. Besides, in the data set on Hepatotoxicity [3], the “Alkaline Phosphatase Increase - Activity Score” value is listed as “Inactive”, the “Alkaline Phosphatase Increase - Index Value” is listed as 2.6 and the “Alkaline Phosphatase Increase - Number of Reports” value is “>= 4”. Also, in the data set with Hepatotoxicity [4], the “LDH Increase - Activity Score” value is recorded as “Inactive”, the “LDH Increase - Index Value” was found to be 0.5 and the “LDH Increase - Number of Reports” value was less than 4. In the data set with Hepatotoxicity [5], the “SGPT Increase - Activity Score” value is listed as “Inactive”, the “SGPT Increase - Index Value” amounted to 0.9 and the “SGPT Increase - Number of Reports” value is recorded as “>= 4”. Further, in the data set with Hepatotoxicity [6], the “SGOT Increase - Activity Score” value was “Inactive”, the “SGOT Increase - Index Value” amounted to 1.7 and the “SGOT Increase - Number of Reports” value is “>= 4”.

As for `N[C@@H](C(=O)N[C@@H]1C(=O)N2C(C(=O)O)=C(Cl)CS[C@H]12)c1ccccc1` [CEFACLOR ANHYDROUS], in the data set with Hepatotoxicity [1], the “Composite Activity - Active” value came out at 1, the “Composite Activity - Marginal” value was determined as 1 and the “Composite Activity - Score” value is on record as “Inactive”. In addition, in the data set with Hepatotoxicity [2], the “GGT Increase - Activity Score” value is reported as “Inactive”, the “GGT Increase - Index Value” is listed as 0 and the “GGT Increase - Number of Reports” value is recorded as less than 4. Also, in the data set with Hepatotoxicity [3], the “Alkaline Phosphatase Increase - Activity Score” value is given as “Marginally Active”, the “Alkaline Phosphatase Increase - Index Value” is 3.4 and the “Alkaline Phosphatase Increase - Number of Reports” value is given as “>= 4”. In the data set on Hepatotoxicity [4], the “LDH Increase - Activity Score” value is recorded as “Inactive”, the “LDH Increase - Index Value” is 0.4 and the “LDH Increase - Number of Reports” value is recorded as “>= 4”. For the same molecule, in the data set with Hepatotoxicity [5], the “SGPT Increase - Activity Score” value is given as “Inactive”, the “SGPT Increase - Index Value” is reported as 2.9 and the “SGPT Increase - Number of Reports” value is “>= 4”. In addition, in the data set on Hepatotoxicity [6], the “SGOT Increase - Activity Score” value is listed as “Active”, the “SGOT Increase - Index Value” was 6 and the “SGOT Increase - Number of Reports” value is listed as “>= 4”.

Take `CC(c1cc2ccccc2s1)N(O)C(N)=O` (stereo unspecified) [ZILEUTON]: in the data set with Hepatotoxicity [1], the “Composite Activity - Active” value worked out at 3, the “Composite Activity - Marginal” value stood at 0 and the “Composite Activity - Score” value was “Active”. Further, in the data set on Hepatotoxicity [2], the “GGT Increase - Activity Score” value is given as “Inactive”, the “GGT Increase - Index Value” stood at 5.9 and the “GGT Increase - Number of Reports” value is less than 4. Moreover, in the data set with Hepatotoxicity [3], the “Alkaline Phosphatase Increase - Activity Score” value is given as “Active”, the “Alkaline Phosphatase Increase - Index Value” amounted to 29.7 and the “Alkaline Phosphatase Increase - Number of Reports” value is listed as “>= 4”. Also, in the data set on Hepatotoxicity [4], the “LDH Increase - Activity Score” value is reported as “Inactive”, the “LDH Increase - Index Value” stood at 11.9 and the “LDH Increase - Number of Reports” value is given as less than 4. In the data set on Hepatotoxicity [5], the “SGPT Increase - Activity Score” value is on record as “Active”, the “SGPT Increase - Index Value” was found to be 65.3 and the “SGPT Increase - Number of Reports” value is “>= 4”. For the same molecule, in the data set with Hepatotoxicity [6], the “SGOT Increase - Activity Score” value is “Active”, the “SGOT Increase - Index Value” is 47.5 and the “SGOT Increase - Number of Reports” value is on record as “>= 4”.

As to `OC(Cn1cncn1)(Cn1cncn1)c1ccc(F)cc1F` [FLUCONAZOLE], in the data set on Hepatotoxicity [1] (Liver), the “Composite Activity - Active” value is listed as 4, the “Composite Activity - Marginal” value was found to be 1 and the “Composite Activity - Score” value is recorded as “Active”. In the data set on Hepatotoxicity [2], the “GGT Increase - Activity Score” value is given as “Active”, the “GGT Increase - Index Value” came to 4.2 and the “GGT Increase - Number of Reports” value was “>= 4”. Moreover, in the data set on Hepatotoxicity [3], the “Alkaline Phosphatase Increase - Activity Score” value is “Active”, the “Alkaline Phosphatase Increase - Index Value” was found to be 8.4 and the “Alkaline Phosphatase Increase - Number of Reports” value is on record as “>= 4”. In the data set with Hepatotoxicity [4], the “LDH Increase - Activity Score” value was “Marginally Active”, the “LDH Increase - Index Value” was 3 and the “LDH Increase - Number of Reports” value is given as “>= 4”. In addition, in the data set with Hepatotoxicity [5], the “SGPT Increase - Activity Score” value is recorded as “Active”, the “SGPT Increase - Index Value” is recorded as 9.1 and the “SGPT Increase - Number of Reports” value was “>= 4”. Besides, in the data set on Hepatotoxicity [6], the “SGOT Increase - Activity Score” value was “Active”, the “SGOT Increase - Index Value” was 9.8 and the “SGOT Increase - Number of Reports” value is “>= 4”.

In the case of `CC(C(=O)O)c1ccc(C(=O)c2cccs2)cc1` (stereo unspecified) [SUPROFEN], in the data set on Hepatotoxicity [1], the “Composite Activity - Active” value was found to be 0, the “Composite Activity - Marginal” value was 0 and the “Composite Activity - Score” value was “Inactive”. In addition, in the data set on Hepatotoxicity [2], the “GGT Increase - Activity Score” value is given as “Inactive”, the “GGT Increase - Index Value” amounted to 0 and the “GGT Increase - Number of Reports” value is listed as less than 4. For the same molecule, in the data set with Hepatotoxicity [3], the “Alkaline Phosphatase Increase - Activity Score” value was “Inactive”, the “Alkaline Phosphatase Increase - Index Value” came to 6.1 and the “Alkaline Phosphatase Increase - Number of Reports” value is less than 4. Also, in the data set with Hepatotoxicity [4], the “LDH Increase - Activity Score” value is listed as “Inactive”, the “LDH Increase - Index Value” came to 0 and the “LDH Increase - Number of Reports” value is listed as less than 4. In addition, in the data set with Hepatotoxicity [5], the “SGPT Increase - Activity Score” value is “Inactive”, the “SGPT Increase - Index Value” is 0 and the “SGPT Increase - Number of Reports” value is less than 4. In addition, in the data set on Hepatotoxicity [6], the “SGOT Increase - Activity Score” value is recorded as “Inactive”, the “SGOT Increase - Index Value” came out at 6.1 and the “SGOT Increase - Number of Reports” value was less than 4.

These data come from ChEMBL document CHEMBL1697781, “Assessment of the health effects of chemicals in humans: II. Construction of an adverse effects database for QSAR modeling” (Curr Drug Discov Technol, 2004).
